The target of experiment [1] is adenosine deaminase. As to conditions: cited from earlier work.
For experiment [2], the target named is T1, Adenosine deaminase (from bovine spleen) (Bos taurus, UniProt P56658).
T1 construct: Adenosine deaminase (from bovine spleen in 3.2 M ammonium sulfate) was purchased from Sigma; purchased Sigma (St. Louis, MO, USA); host or cells: bovine spleen (tissue-derived)
T1 sequence (P56658 1-363): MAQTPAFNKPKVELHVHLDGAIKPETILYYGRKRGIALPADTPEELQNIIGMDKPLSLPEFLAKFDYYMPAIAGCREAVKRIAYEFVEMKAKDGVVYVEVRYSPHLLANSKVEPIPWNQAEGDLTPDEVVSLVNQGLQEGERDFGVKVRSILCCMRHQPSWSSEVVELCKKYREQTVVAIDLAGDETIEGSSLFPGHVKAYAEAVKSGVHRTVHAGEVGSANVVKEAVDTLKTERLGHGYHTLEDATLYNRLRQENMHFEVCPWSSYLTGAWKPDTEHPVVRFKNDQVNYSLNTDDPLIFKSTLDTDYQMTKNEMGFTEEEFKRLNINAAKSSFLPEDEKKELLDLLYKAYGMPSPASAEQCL
The experiment can be described thus: ADA enzyme inhibition by UV-vis spectrophotometry (Kaplan method, absorbance at 265 nm). The format is biochemical. The settings on record: for IC50: pH 7.5, 37°C, phosphate buffer; for Ki: secondary plot of apparent Km versus [I], inhibitor 0–130 μM, substrate 20–124 μM, 37°C, pH 7.5, read-out: Ki (inhibition constant). The protocol:
Adenosine deaminase (from bovine spleen in 3.2 M ammonium sulfate) was purchased from Sigma (St. Louis, MO, USA). Phosphate buffer 50 mM, pH 7.5, was used as media which is comprised NaH2PO4 and Na2HPO4 and are from Merck. In addition, other material such as solvents, were purchased from this company.
All of biological samples were prepared with double distilled water. The adenosine stock solution prepared and was used in concentration range of 0.01-0.4 mM. The concentration of enzyme in the assay mixture 50 mM sodium phosphate buffer, was 0.9 nM with a final volume of 1ml. Enzymatic activities were assayed by UV–vis spectrophotometry (Shimadzu-3100, Japan) based on Kaplan Method to follow the decrease in absorbance at 265 nm resulting from the conversion of adenosine to inosine.
For accurate determination of kinetic parameters, the IC50 values were evaluated, and then the enzyme inhibition was studied in 180 s intervals. […] In a competitive inhibition; Vmax is unaltered, whereas Km is increased. The slope of a competitive plot is equal to:
Slope=KmI/Vmax.Ki+Km/Vmax
All experiments performed in 37°C and phosphate buffer, pH=7.5.

The target of experiment [3] is T2, Adenosine deaminase (Bos taurus, UniProt P56658).
T2 construct: Adenosine deaminase (from bovine spleen in 3.2 M ammonium sulfate) was purchased from Sigma; purchased Sigma (St. Louis, MO, USA); host or cells: bovine spleen (tissue-derived)
T2 sequence (P56658 1-363): T1 sequence (P56658 1-363)
Nature of the experiment: Fluorescence spectroscopy of ADA 3-D structure changes. Also noted: species or system bovine. As to conditions: excitation 290 nm, pH 7.5, 37°C; inhibitor 10 μM. As for the experimental part:
Fluorescence study has been done with fluorescent spectroscopy (Hitachi MPF-4, Japan), which its cell length is 1cm. In this method, the exciting wavelength was adjusted in 290 nm and the emission was studied in range of 300–400 nm for possible enzyme 3-D structure changes. In this experiment, different concentrations of inhibitors (5–100 μM) were investigated in the presence of ADA (0.01unit) by final volume of 400 μL with phosphate buffer.
To investigate changes in enzyme 3-D structure at different concentration of inhibitors (10–100 μM), the fluorescence experiments were done in excitation wavelength of 290 nm, which is due to tryptophan amino acids in the active site of enzyme Figure 5.
Figure 5 The fluorescence spectra of adenosine deaminase at pH=7.5 and T=37°C in the presence of different concentrations of three inhibitors: 10–100 μM.

Results on three compounds are retold here after article PMC3556010, “A new strategy based on pharmacophore-based virtual screening in adenosine deaminase inhibitors detection and in-vitro study” (DARU Journal of Pharmaceutical Sciences, 2012).

In the case of “erythro-9-(2-hydroxy-3-nonyl) adenine [EHNA]”, the Ki at adenosine deaminase [1] is 0.037 µM.
With `Cn1c([N+](=O)[O-])cnc1C#N` [Compound 2], the inhibition mechanism entry in experiment [2] (kinetic studies) is “competitive”. Besides, in experiment [2], the IC50 (in general, the concentration that gives 50% inhibition) was 41 µM and the Ki turned out to be 20 µM. Besides, the “enzyme structural changes by fluorescence intensity” value at Adenosine deaminase [3] was “sever structural changes”.
For `Cn1c([N+](=O)[O-])cnc1-c1nnco1` [Compound 1], in experiment [2], it took 103 µM to reach half-maximal inhibition (IC50) and the Ki is 63 µM.
